Results taken from US5506207A, “GNRH antagonists XIII” (The Salk Institute for Biological Studies, priority 1994, dated 1996).
“Also recorded” adds a separate entry of the source. Square brackets hold non-standard residues; d marks the D form. Peptide text beside a SMILES is read from it. * marks the point of attachment. dPhe(4-NH2) = Nc1ccc(C[C@@H](N)C(=O)O)cc1; dPhe(4-Cl) = N[C@H](Cc1ccc(Cl)cc1)C(=O)O; Phe(4-NH2) = Nc1ccc(C[C@H](N)C(=O)O)cc1; d2Nal = N[C@H](Cc1ccc2ccccc2c1)C(=O)O; Lys(iPr) = CC(C)NCCCC[C@H](N)C(=O)O; d3Pal = N[C@H](Cc1cccnc1)C(=O)O; X1 = Nc1n[nH]c(NCC(=O)*)n1

Assays:
[1] = system: mature female Sprague-Dawley rats; assay: examination of treated rats for tolerance and gelling at the point of injection; format: in vivo, rat; conditions: rats injected with peptide in bacteriostatic water
[2] = solubility in aqueous buffers; format: physicochemical; conditions: pH from about 5 to about 7

CC(=O)N[C@H](Cc1ccc2ccccc2c1)C(=O)N[C@H](Cc1ccc(Cl)cc1)C(=O)N[C@H](Cc1cccnc1)C(=O)N[C@@H](CO)C(=O)N[C@@H](Cc1ccc(NC(=O)CNc2nc(N)n[nH]2)cc1)C(=O)N[C@H](Cc1ccc(NC(=O)CNc2nc(N)n[nH]2)cc1)C(=O)N[C@@H](CC(C)C)C(=O)N[C@@H](CCCCNC(C)C)C(=O)N1CCC[C@H]1C(=O)N[C@H](C)C(N)=O [Peptide No. 1, [Ac-β-D-2NAL^1, (4Cl)D-Phe^2, D-3PAL^3, Aph(Gly)(atz)^5, D-Aph(Gly)(atz)^6, ILys^8, D-Ala^10]-GnRH] (Ac-[d2Nal][dPhe(4-Cl)][d3Pal]S[Phe(4-NH2)](X1)[dPhe(4-NH2)](X1)L[Lys(iPr)]P[dA]-NH2)
tolerance and gelling at the point of injection [1]: very well tolerated with no significant gelling at the point of injection being detectable; also recorded: resistance to in vivo gelling | solubility in aqueous buffers [2]: solubility in aqueous buffers at a pH of from about 5 to about 7
